Consider three compounds from ChEMBL document CHEMBL1146585, “Copacamphane, picrotoxane, and alloaromadendrane sesquiterpene glycosides and phenolic glycosides from Dendrobium moniliforme” (J Nat Prod, 2003).

The subject of one series is B-cell. The series can be described thus: Immunoregulatory activity assessed as stimulation of B cell proliferation at 10 uM. The class given is functional, cell-based.
A further series has as its system T-cell. The series can be described thus: Immunoregulatory activity assessed as inhibition of T cell proliferation at 0.1 uM. The class given is functional, cell-based.
Series [1] is described as follows: Cytotoxicity against T cell. The class given is cell-based.

Active and inactive are the calls of the source. The rule behind the calls is not given here.

Consider `CC(C)(O)[C@H]1C[C@H](O[C@@H]2O[C@H](CO)[C@@H](O)[C@H](O)[C@H]2O)[C@@]2(C)[C@@H]3CC[C@]2(C)C(=O)[C@@H]31` [DENDROMONILISIDE A], for which the outcome with B-cell and in the series on T-cell was Active. Also, in series [1], the Activity result is “Non-toxic”.

Consider `CC(C)[C@H]1[C@@H]2OC(=O)[C@H]1[C@H]1C[C@H](O[C@@H]3O[C@H](CO)[C@@H](O)[C@H](O)[C@H]3O)[C@]3(CO3)[C@@]1(C)[C@H]2O` [DENDROMONILISIDE C], for which the result in the series on B-cell and in the series on T-cell was Active. In addition, the Activity result in series [1] is “Non-toxic”.

Regarding `COc1cc(CO)ccc1O[C@@H]1O[C@H](CO)[C@@H](O)[C@H](O)[C@H]1O` [VANILLOLOSIDE], the outcome in the series on B-cell and with T-cell was Active. Besides, the Activity entry in series [1] is reported as “Non-toxic”.
